# Active and inactive are the calls of the source. The calls are words filed in the database; no cut-off is given here.
# Tests used:
# DBTRG-05MG [1] = assay: Cytotoxicity against human DBTRG-05MG cells assessed as reduction in cell viability after 24 hrs by MTT assay; type: functional, cell-based
# [2] = Cytotoxicity against rat CTX TNA2 cells assessed as reduction in cell viability after 72 hrs by MTT assay; type: cell-based; conditions: CTX TNA2, 72 h
# RG2 [3] = assay: Cytotoxicity against rat RG2 cells assessed as reduction in cell viability after 24 hrs by MTT assay; type: functional, cell-based; conditions: for IC50: RG2, 24 h
# RG2 [4] = assay: Induction of cell cycle arrest in rat RG2 cells assessed as accumulation at G2/M phase at 206 uM after 12 hrs by propidium iodide staining based flow cytometric analysis (reference value: 20.04 +/- 0.55%); type: functional
# RG2 [5] = assay: Induction of cell cycle arrest in rat RG2 cells assessed as accumulation at G0/G1 phase at 206 uM after 12 hrs by propidium iodide staining based flow cytometric analysis (reference value: 57.81 +/- 1.9%); type: functional
# DBTRG-05MG [6] = assay: Induction of apoptosis in human DBTRG-05MG cells assessed as cleaved PARP expression at 206 uM after 48 hrs by Western blot analysis (reference value: 1); type: functional
# RG2 [7] = assay: Cytotoxicity against rat RG2 cells assessed as reduction in cell viability after 72 hrs by MTT assay; type: functional, cell-based; conditions: for IC50: RG2, 72 h
# [8] = Cytotoxicity against rat CTX TNA2 cells assessed as reduction in cell viability after 48 hrs by MTT assay; type: cell-based; conditions: CTX TNA2, 48 h
# RG2 [9] = assay: Cytotoxicity against rat RG2 cells assessed as reduction in cell viability after 48 hrs by MTT assay; type: functional, cell-based; conditions: for IC50: RG2, 48 h
# DBTRG-05MG [10] = assay: Cytotoxicity against human DBTRG-05MG cells assessed as reduction in cell viability after 72 hrs by MTT assay; type: functional, cell-based
# [11] = Cytotoxicity against rat CTX TNA2 cells assessed as reduction in cell viability after 24 hrs by MTT assay; type: cell-based; conditions: CTX TNA2, 24 h
# RG2 [12] = assay: Induction of cell cycle arrest in rat RG2 cells assessed as CyclinD1 expression at 206 uM after 48 hrs by Western blot analysis (reference value: 1); type: functional
# DBTRG-05MG [13] = assay: Induction of DNA damage in human DBTRG-05MG cells assessed as Chk1 phosphorylation at ser345 residues at 206 uM after 48 hrs by Western blot analysis (reference value: 1); type: functional
# DBTRG-05MG [14] = assay: Cytotoxicity against human DBTRG-05MG cells assessed as reduction in cell viability after 48 hrs by MTT assay; type: functional, cell-based
# [15] = Synergistic cytotoxicity against rat CTX TNA2 cells assessed as synergistic effect index at 134.9 uM after 48 hrs in presence of 309 uM TMZ by MTT assay; type: cell-based; conditions: ctx tna2, 48 h
# DBTRG-05MG [16] = assay: Synergistic cytotoxicity against human DBTRG-05MG cells assessed as synergistic effect index at 134.9 uM after 48 hrs in presence of 206 uM TMZ by MTT assay; type: functional
# DBTRG-05MG [17] = assay: Synergistic cytotoxicity against human DBTRG-05MG cells assessed as synergistic effect index at 89.9 uM after 48 hrs in presence of 103 uM TMZ by MTT assay; type: functional
# DBTRG-05MG [18] = assay: Induction of apoptosis in human DBTRG-05MG cells assessed as increase in chromatin condensation at 112.4 uM after 48 hrs in presence of TMZ by TUNEL assay; type: functional, cell-based
# RG2 [19] = assay: Induction of cell cycle arrest in rat RG2 cells assessed as accumulation at G0/G1 phase at 112.4 uM after 24 hrs in presence of TMZ by propidium iodide staining based flow cytometric analysis (reference value: 57.81 +/- 1.9%); type: functional
# RG2 [20] = assay: Induction of DNA damage in rat RG2 cells assessed as H2A.X phosphorylation at ser139 at 112.4 uM after 48 hrs in presence of TMZ by Western blot analysis (reference value: 1); type: functional
# [21] = Effect on ERK expression in rat RG2 cells at 112.4uM after 48 hrs in presence of TMZ by Western blot analysis (reference value: 1); type: functional
# RG2 [22] = assay: Induction of DNA damage in rat RG2 cells assessed as Chk1 phosphorylation at ser345 at 112.4 uM after 48 hrs by Western blot analysis (reference value: 1); type: functional
# RG2 [23] = assay: Induction of DNA damage in rat RG2 cells assessed as Chk2 phosphorylation at Thr68 at 112.4 uM after 48 hrs by Western blot analysis (reference value: 1); type: functional
# RG2 [24] = assay: Induction of DNA damage in rat RG2 cells assessed as Chk1 phosphorylation at ser345 at 112.4 uM after 48 hrs in presence of TMZ by Western blot analysis (reference value: 1); type: functional
# [25] = Synergistic cytotoxicity against rat CTX TNA2 cells assessed as combination index at 112.4 uM after 48 hrs in presence of 103 uM TMZ by MTT assay; type: cell-based; conditions: ctx tna2, 48 h
# RG2 [26] = assay: Synergistic cytotoxicity against rat RG2 cells assessed as synergistic effect index at 134.9 uM after 48 hrs in presence of 515.1 uM TMZ by MTT assay; type: functional
# RG2 [27] = assay: Synergistic cytotoxicity against rat RG2 cells assessed as synergistic effect index at 89.9 uM after 48 hrs in presence of 103 uM TMZ by MTT assay; type: functional
# RG2 [28] = assay: Synergistic cytotoxicity against rat RG2 cells assessed as combination index at 134.9 uM after 48 hrs in presence of 309 uM TMZ by MTT assay; type: functional
# RG2 [29] = assay: Induction of apoptosis in rat RG2 cells assessed as Bcl2 expression at 112.4 uM after 48 hrs by Western blot analysis (reference value: 1); type: functional
# DBTRG-05MG [30] = assay: Antitumour activity against human DBTRG-05MG cells xenografted in BALB/c nude mouse assessed as reduction in tumour growth at 75 mg/kg, sc for every 2 days for 20 days and measured every 2 days; type: functional, organism-based; conditions: time 20.0 day
# DBTRG-05MG [31] = assay: Synergistic cytotoxicity against human DBTRG-05MG cells assessed as synergistic effect index at 89.9 uM after 48 hrs in presence of 309 uM TMZ by MTT assay; type: functional
# RG2 [32] = assay: Induction of cell cycle arrest in rat RG2 cells assessed as CDK4 expression at 112.4 uM after 48 hrs by Western blot analysis (reference value: 1); type: functional
# DBTRG-05MG [33] = assay: Induction of DNA damage in human DBTRG-05MG cells assessed as Chk1 phosphorylation at ser345 residues at 112.4 uM after 48 hrs in presence of TMZ by Western blot analysis (reference value: 1); type: functional
# DBTRG-05MG [34] = assay: Induction of cell cycle arrest in human DBTRG-05MG cells assessed as CyclinA expression at 112.4 uM after 48 hrs by Western blot analysis (reference value: 1); type: functional
# [35] = molecular target: MAP kinase p38 (Homo sapiens) (UniProt O15264+Q15759+Q16539+P53778); assay: Inhibition of p38 phosphorylation at Tyr182 residues in human DBTRG-05MG cells at 112.4uM after 48 hrs by Western blot analysis (reference value: 1); type: cell-based
# RG2 [36] = assay: Induction of DNA damage in rat RG2 cells assessed as ATR phosphorylation at ser428 residues at 112.4 uM after 48 hrs by Western blot analysis (reference value: 1); type: functional
smiles,measurement,setting,value
Cn1nnc2c(C(N)=O)ncn2c1=O [TEMOZOLOMIDE],IC50,DBTRG-05MG [1],974 µM
same,IC50,[2],431 µM
same,IC50,RG2 [3],962 µM
same,Activity,RG2 [4],28.32%
same,Activity,RG2 [5],49.55%
same,fold change (FC),DBTRG-05MG [6],1.4
same,IC50,RG2 [7],107 µM
same,IC50,[8],487 µM
same,IC50,RG2 [9],348 µM
same,IC50,DBTRG-05MG [10],119 µM
same,IC50,[11],666 µM
same,fold change (FC),RG2 [12],1
same,fold change (FC),DBTRG-05MG [13],1
same,IC50,DBTRG-05MG [14],355 µM
C[C@@H]1CC[C@H]2C(C)(C)[C@H]3C[C@@]12CC[C@@]3(C)O [CEDROL],Activity_index,[15],0.52
same,Activity_index,DBTRG-05MG [16],0.88
same,Activity,DBTRG-05MG [1],Dose-dependent effect
same,IC50,DBTRG-05MG [1],119 µM
same,Activity_index,DBTRG-05MG [17],0.66
same,Activity,DBTRG-05MG [18],Active
same,IC50,[2],255 µM
same,Activity,RG2 [3],Dose-dependent effect
same,IC50,RG2 [3],107 µM
same,Activity,RG2 [19],61.35%
same,fold change (FC),RG2 [20],1.3
same,fold change (FC),[21],0.7
same,fold change (FC),RG2 [22],1.1
same,fold change (FC),RG2 [23],1
same,Activity,RG2 [7],Dose-dependent effect
same,IC50,RG2 [7],89.2 µM
same,fold change (FC),RG2 [24],3.5
same,CI,[25],1.24
same,Activity_index,RG2 [26],0.89
same,Activity_index,RG2 [27],0.65
same,IC50,[8],280 µM
same,CI,RG2 [28],0.92
same,fold change (FC),RG2 [29],1.1
same,Activity,DBTRG-05MG [30],Active
same,Activity,RG2 [9],Dose-dependent effect
same,IC50,RG2 [9],93.3 µM
same,Activity_index,DBTRG-05MG [31],0.75
same,Activity,DBTRG-05MG [10],Dose-dependent effect
same,IC50,DBTRG-05MG [10],107 µM
same,fold change (FC),RG2 [32],0.8
same,fold change (FC),DBTRG-05MG [33],1.4
same,IC50,[11],238 µM
same,fold change (FC),DBTRG-05MG [34],0.6
same,fold change (FC),[35],1
same,fold change (FC),RG2 [36],0.9
same,Activity,DBTRG-05MG [14],Dose-dependent effect
same,IC50,DBTRG-05MG [14],102 µM

# — ChEMBL document CHEMBL4699511, “Cedrol, a Sesquiterpene Alcohol, Enhances the Anticancer Efficacy of Temozolomide in Attenuating Drug Resistance via Regulation of the DNA Damage Response and MGMT Expression” (J Nat Prod, 2020)
